Reference: PubChem BioAssay (NCI)
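A five-concentration, 48-hour dose response in 96-well plates underlies each endpoint, interpolated linearly between surrounding concentrations. GI50 is the concentration that inhibits growth by half. TGI marks complete inhibition of growth.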

Experiments:
Assay in all cases: DTP human tumour cell line panel, 48 h
[1] = system: SK-OV-3 ovarian
[2] = system: SF-268 CNS
[3] = system: MDA-MB-435
[4] = system: 786-0 renal
[5] = system: DU-145 prostate
[6] = system: IGROV1 ovarian
[7] = system: U251 CNS
[8] = system: SNB-19 CNS
[9] = system: HOP-62 NSCLC
[10] = system: RPMI-8226 leukemia
[11] = system: T-47D breast
[12] = system: PC-3 prostate
[13] = system: OVCAR-3 ovarian
[14] = system: HCC-2998 colon
[15] = system: A498 renal
[16] = system: HCT-15 colon
[17] = system: SNB-75 CNS
[18] = system: UACC-257 melanoma
[19] = system: NCI-H460 lung
[20] = system: SK-MEL-2 melanoma
[21] = system: UACC-62 melanoma
[22] = system: KM12 colon
[23] = system: RXF 393 renal
[24] = system: HOP-92 NSCLC
[25] = system: CAKI-1 renal
[26] = system: SW-620 colon
[27] = system: OVCAR-8 ovarian
[28] = system: NCI-H522 lung
[29] = system: A549 NSCLC
[30] = system: K-562 leukemia
[31] = system: HS 578T breast
[32] = system: HL-60(TB) leukemia
[33] = system: TK-10 renal
[34] = system: NCI-H226 lung
[35] = system: OVCAR-5 ovarian
[36] = system: MDA-MB-231 breast
[37] = system: SK-MEL-5 melanoma
[38] = system: ACHN renal
[39] = system: HCT-116 colon
[40] = system: M14 melanoma
[41] = system: SF-539 CNS
[42] = system: EKVX NSCLC
[43] = system: MALME-3M melanoma
[44] = system: SN12C renal
[45] = system: HT29 colon
[46] = system: BT-549 breast
[47] = system: UO-31 renal
[48] = system: SK-MEL-28 melanoma
[49] = system: MCF7 breast
[50] = system: NCI/ADR-RES ovarian
[51] = system: OVCAR-4 ovarian
[52] = system: COLO 205 colon
[53] = system: NCI-H23 lung
[54] = system: SF-295 CNS
[55] = system: LOX IMVI melanoma
[56] = system: CCRF-CEM leukemia
[57] = system: MOLT-4 leukemia
[58] = system: SR leukemia

Molecule `CNC(=S)NC(=O)c1c(Cl)n(C(=O)OC(C)(C)C)c2ccccc12` has a GI50 [1] of over 100 µM, a TGI [1] of over 100 µM and a GI50 [2] of 72.8 µM. It also gave a TGI [2] of over 100 µM, a GI50 [3] of 44 µM and a TGI [3] of over 100 µM. It also gave a GI50 [4] of 91.1 µM, a TGI [4] of over 100 µM and a GI50 [5] of 94.2 µM. It also gave a TGI [5] of over 100 µM, a GI50 [6] of 21 µM and a TGI [6] of over 100 µM. The GI50 [7] was 53.6 µM, the TGI [7] was over 100 µM and the GI50 [8] was 79.9 µM. It also gave a TGI [8] of over 100 µM, a GI50 [9] of over 100 µM and a TGI [9] of over 100 µM. For the same molecule, the GI50 [10] was 20.5 µM, the TGI [10] was 68.9 µM and the GI50 [11] was 44.1 µM. It also gave a TGI [11] of over 100 µM, a GI50 [12] of 25.5 µM and a TGI [12] of over 100 µM. It also gave a GI50 [13] of 38.1 µM, a TGI [13] of over 100 µM and a GI50 [14] of 27.6 µM. For the same molecule, the TGI [14] was over 100 µM, the GI50 [15] was 51.5 µM and the TGI [15] was over 100 µM. It also gave a GI50 [16] of 86 µM, a TGI [16] of over 100 µM and a GI50 [17] of 96 µM. For the same molecule, the TGI [17] was over 100 µM, the GI50 [18] was 94.5 µM and the TGI [18] was over 100 µM. The GI50 [19] was 48.6 µM, the TGI [19] was over 100 µM and the GI50 [20] was over 100 µM. For the same molecule, the TGI [20] was over 100 µM, the GI50 [21] was 56.2 µM and the TGI [21] was over 100 µM. The GI50 [22] was 77.4 µM, the TGI [22] was over 100 µM and the GI50 [23] was 48.5 µM. The TGI [23] was over 100 µM, the GI50 [24] was 15.1 µM and the TGI [24] was 85.1 µM. It also gave a GI50 [25] of 21.2 µM, a TGI [25] of 69.9 µM and a GI50 [26] of 79.2 µM. For the same molecule, the TGI [26] was over 100 µM, the GI50 [27] was 89.1 µM and the TGI [27] was over 100 µM. The GI50 [28] was 30.6 µM, the TGI [28] was 90.9 µM and the GI50 [29] was 84.3 µM. It also gave a TGI [29] of over 100 µM, a GI50 [30] of over 100 µM and a TGI [30] of over 100 µM. The GI50 [31] was 45.8 µM, the TGI [31] was over 100 µM and the GI50 [32] was 79.7 µM. The TGI [32] was over 100 µM, the GI50 [33] was 97.5 µM and the TGI [33] was over 100 µM. It also gave a GI50 [34] of over 100 µM, a TGI [34] of over 100 µM and a GI50 [35] of 73.8 µM. It also gave a TGI [35] of over 100 µM, a GI50 [36] of 33.7 µM and a TGI [36] of over 100 µM. It also gave a GI50 [37] of 28.1 µM, a TGI [37] of over 100 µM and a GI50 [38] of 89.6 µM. For the same molecule, the TGI [38] was over 100 µM, the GI50 [39] was 38.5 µM and the TGI [39] was over 100 µM. For the same molecule, the GI50 [40] was 83 µM, the TGI [40] was over 100 µM and the GI50 [41] was 35 µM. For the same molecule, the TGI [41] was over 100 µM, the GI50 [42] was 39.7 µM and the TGI [42] was over 100 µM. For the same molecule, the GI50 [43] was over 100 µM, the TGI [43] was over 100 µM and the GI50 [44] was 72.8 µM. The TGI [44] was over 100 µM, the GI50 [45] was 56.7 µM and the TGI [45] was over 100 µM. For the same molecule, the GI50 [46] was 53.2 µM, the TGI [46] was over 100 µM and the GI50 [47] was 73.8 µM. It also gave a TGI [47] of over 100 µM, a GI50 [48] of over 100 µM and a TGI [48] of over 100 µM. It also gave a GI50 [49] of 28.3 µM, a TGI [49] of over 100 µM and a GI50 [50] of 47.8 µM. The TGI [50] was over 100 µM, the GI50 [51] was over 100 µM and the TGI [51] was over 100 µM. The GI50 [52] was 59.6 µM, the TGI [52] was over 100 µM and the GI50 [53] was 53.1 µM. For the same molecule, the TGI [53] was over 100 µM, the GI50 [54] was 56.4 µM and the TGI [54] was over 100 µM. For the same molecule, the GI50 [55] was 30 µM, the TGI [55] was over 100 µM and the GI50 [56] was 35.4 µM. For the same molecule, the TGI [56] was over 100 µM.
`COc1cc2nc(-c3cccs3)nc(N3CCN(c4ccccc4C(F)(F)F)CC3)c2cc1OC` was tested, and the TGI [1] was over 100 µM, the TGI [2] was over 100 µM and the TGI [3] was over 100 µM. The TGI [4] was over 100 µM, the TGI [5] was over 100 µM and the TGI [6] was over 100 µM. The TGI [7] was over 100 µM, the TGI [8] was over 100 µM and the TGI [9] was over 100 µM. For the same molecule, the TGI [10] was over 100 µM, the TGI [11] was over 100 µM and the TGI [12] was over 100 µM. For the same molecule, the TGI [13] was over 100 µM, the TGI [14] was over 100 µM and the TGI [15] was over 100 µM. The TGI [16] was over 100 µM, the TGI [17] was over 100 µM and the TGI [18] was over 100 µM. For the same molecule, the TGI [19] was over 100 µM, the TGI [20] was over 100 µM and the TGI [21] was over 100 µM. It also gave a TGI [22] of over 100 µM, a TGI [24] of over 100 µM and a TGI [25] of over 100 µM. The TGI [26] was over 100 µM, the TGI [27] was over 100 µM and the TGI [28] was over 100 µM. The TGI [29] was over 100 µM, the TGI [30] was over 100 µM and the TGI [31] was over 100 µM. It also gave a TGI [32] of over 100 µM, a TGI [33] of over 100 µM and a TGI [34] of over 100 µM. For the same molecule, the TGI [35] was over 100 µM, the TGI [36] was over 100 µM and the TGI [37] was over 100 µM. It also gave a TGI [38] of over 100 µM, a TGI [39] of over 100 µM and a TGI [40] of over 100 µM. The TGI [41] was over 100 µM, the TGI [42] was over 100 µM and the TGI [57] was over 100 µM. For the same molecule, the TGI [43] was over 100 µM, the TGI [44] was over 100 µM and the TGI [45] was over 100 µM. It also gave a TGI [46] of over 100 µM, a TGI [47] of over 100 µM and a TGI [48] of over 100 µM. It also gave a TGI [49] of over 100 µM, a TGI [50] of over 100 µM and a TGI [51] of over 100 µM. It also gave a TGI [52] of over 100 µM, a TGI [53] of over 100 µM and a TGI [54] of over 100 µM. It also gave a TGI [55] of over 100 µM and a TGI [56] of over 100 µM.
In the case of `CC12CCC(C(Nc3cc(C(F)(F)F)cc(C(F)(F)F)c3)C1=O)C2(C)C` (stereo not drawn), the TGI [1] was over 100 µM, the TGI [2] was over 100 µM and the TGI [3] was over 100 µM. The TGI [4] was over 100 µM, the TGI [5] was over 100 µM and the TGI [58] was over 100 µM. It also gave a TGI [6] of over 100 µM, a TGI [7] of over 100 µM and a TGI [8] of over 100 µM. For the same molecule, the TGI [9] was over 100 µM, the TGI [10] was over 100 µM and the TGI [11] was over 100 µM. The TGI [12] was over 100 µM, the TGI [13] was over 100 µM and the TGI [14] was over 100 µM. It also gave a TGI [15] of over 100 µM, a TGI [16] of over 100 µM and a TGI [18] of over 100 µM. The TGI [19] was over 100 µM, the TGI [20] was over 100 µM and the TGI [21] was over 100 µM. It also gave a TGI [22] of over 100 µM, a TGI [25] of over 100 µM and a TGI [26] of over 100 µM. For the same molecule, the TGI [27] was over 100 µM, the TGI [29] was over 100 µM and the TGI [30] was over 100 µM. For the same molecule, the TGI [33] was over 100 µM, the TGI [34] was over 100 µM and the TGI [35] was over 100 µM. The TGI [36] was over 100 µM, the TGI [37] was over 100 µM and the TGI [38] was over 100 µM. It also gave a TGI [39] of over 100 µM, a TGI [40] of over 100 µM and a TGI [41] of over 100 µM. The TGI [42] was over 100 µM, the TGI [57] was over 100 µM and the TGI [43] was over 100 µM. For the same molecule, the TGI [45] was over 100 µM, the TGI [46] was over 100 µM and the TGI [47] was over 100 µM. The TGI [48] was over 100 µM, the TGI [49] was over 100 µM and the TGI [50] was over 100 µM. The TGI [51] was over 100 µM, the TGI [52] was over 100 µM and the TGI [53] was over 100 µM. For the same molecule, the TGI [54] was over 100 µM and the TGI [55] was over 100 µM.
